Test results from paper PMC12715788, “Unraveling the Potential of Small Molecule Heparin Glycomimetics in Neuroregenerative Therapeutics” (Journal of the American Chemical Society, 2025).
Several values for one entry are separate records, joined by “and”; a condition that tells them apart may be missing. Equal entries are not always repeated. Entries after “also recorded” stand apart in the source; their conditions may differ.

Columns and labels:
[1] = test system: citrated pooled rat plasma; assay: Activated partial thromboplastin time (aPTT) assay; conditions: citrated pooled rat plasma; highest concentration tested; control 22 s
Description: To complement these findings, we performed an activated partial thromboplastin time (aPTT) assay in citrated pooled rat plasma to assess the overall impact of the compounds on the intrinsic coagulation pathway. This global clotting assay measures the time required for fibrin formation and is sensitive to anticoagulant effects. Figure F,G compare the effects of UFH, heparan sulfate, Fondaparinux, and the synthetic glycomimetics when supplemented into citrated plasma. […] As expected, UFH produced a strong, concentration-dependent anticoagulant response, prolonging the mean clotting time to 271 s at the highest concentration tested, while heparan sulfate and Fondaparinux induced weaker but measurable effects (83 and 37 s, respectively). […] The results further confirm that selective sulfation patterns can decouple GF recognition from anticoagulant function, an essential prerequisite for their translational application in regenerative medicine. […] These interactions are in line with nonspecific electrostatic binding, a feature of highly sulfated oligosaccharides known to engage different proteins via charge-based, rather than specific, biologically targeted interactions. Thus, to avoid potential off-target effects associated with highly sulfated analogues, we selected the disaccharide D2 for subsequent biological experiments.

FGF-2 [2] = molecular target: T1, FGF-2 (Homo sapiens, UniProt P09038); assay: BLI competition assay with immobilized native HS for FGF-2 binding; conditions: for competition with immobilized native HS for FGF-2 binding, signal intensity: FGF-2 50 nM premixed with varying concentrations; for IC50: FGF-2 50 nM, fixed association time t = 240 s, read-out: Apparent IC50(t), competition with immobilized native HS for FGF-2 binding
Description: We next examined the functional relevance of the synthetic HS glycomimetics by testing their ability to compete with native HS for FGF-2 binding using competition assays. Although direct binding assays measure the intrinsic affinity of HS glycomimetics for FGF-2, they are limited in representing the complex, multimolecular environment of biological systems. In vivo, FGF-2 activity is tightly regulated by its interactions with GAGs, which are abundant on cell surfaces and in the ECM. These interactions stabilize FGF-2 and facilitate its dimerization with FGF receptors (FGFRs), a requirement for effective signal transduction. , Thus, therapeutic candidates targeting FGF-2 must be evaluated not only for direct binding but also for their ability to modulate or disrupt GAG-mediated interactions. Therefore, we performed competition assays in which native HS was immobilized on the sensor surface. Solutions containing a fixed concentration of FGF-2 (50 nM) were premixed with varying concentrations of HS glycomimetics, functioning as inhibitors in this context, (M1, D1, D2, D3, and T1) and also with the heparin hexasaccharide (H1) (GlcNS6S-GlcA-GlcNS3S6S-IdoA2S-GlcNS6S-GlcA), a well-studied HS glycomimetic in the literature, as a positive control (Figure B). […] The progressive decrease in signal intensity with increasing inhibitor concentration directly reflects competition with immobilized HS for FGF-2 binding.

FGF-2 [3] = molecular target: T1, FGF-2; assay: Far-UV CD spectroscopy and CD thermal denaturation; conditions: CD thermal denaturation 10–90 °C; protein with sugar, 1:3 molar ratio
Description: (§1) To select a lead compound, we complemented the affinity data with a series of studies evaluating the structural and functional implications of protein-HS glycomimetic interactions. We assessed the therapeutic safety profile of our HS glycomimetics. We also employed circular dichroism (CD) spectroscopy to assess secondary structural changes in protein conformation upon binding to native HS and HS glycomimetics. Since native HS alone produces only a minimal signal, it was ensured that its contribution would not interfere with protein-sugar complex spectra. Therefore, only the far-UV CD spectra of bare proteins and their sugar complexes were recorded. […] Upon incubation with sugars (1:3 molar ratio), significant spectral changes were observed, indicating sugar-induced alterations in secondary structure (Figure A).
(§2) We also evaluated the thermal stability of the proteins and their sugar complexes by CD-based thermal denaturation experiments. The spectra were recorded across a temperature range of 10–90 °C (Figure B). For all proteins except AT-III, the unfolding profiles were analyzed to determine the melting temperature (T m), representing the midpoint of the transition from the folded to the unfolded state, an indicator of structural integrity and resistance to thermal denaturation. The calculated values are compiled in Table .

FGF-1 = FGF-1 (Homo sapiens, UniProt P05230); assay: Far-UV CD spectroscopy and CD thermal denaturation; conditions: CD thermal denaturation 10–90 °C; protein with sugar, 1:3 molar ratio
Description: as §1, §2

AT-III = AT-III (Homo sapiens, UniProt P01008); assay: BLI binding assay, sugars immobilized, protein as analyte
Procedure: We evaluated the binding affinity of native HS and synthetic HS glycomimetics (M1, D1, D2, D3, and T1) to these proteins using biolayer interferometry (BLI). The terminal amino groups of the sugars were immobilized onto the sensor surface using standard amine coupling chemistry, and binding assays were performed by introducing the proteins as analytes at varying concentrations (Figure A). The equilibrium dissociation constants (K D) were determined using the steady-state affinity curve fitting.

Factor Xa = assay: AT-III-mediated chromogenic substrate assay; format: biochemical; conditions: absorbance at 405 nm
Description: (§3) Active coagulation factors cleave chromogenic peptide substrates, therefore producing p-nitroaniline, a yellow-colored product with a detectable absorbance signal at λ = 405 nm. Inhibitors like heparin-AT-III complexes decrease enzyme activity and so lower absorbance readings.

Factor IIa (thrombin) = assay: AT-III-mediated chromogenic substrate assay; format: biochemical; conditions: absorbance at 405 nm
Description: as §3

[4] = test system: rat dissociated hippocampal neurons; assay: Neurite morphometry in dissociated hippocampal neurons; format: cell-based; conditions: 24 h treatment, 1 day in vitro, D2 1 μM, FGF-2 40 ng/mL, mean ± SEM
Procedure: In the pursuit of this, we used rat dissociated hippocampal neurons as an in vitro model system. We assessed the impact of HS glycomimetics on neuronal morphology, using immunofluorescence imaging and quantitative morphometric analysis, and on synaptic functionality through electrophysiological monitoring of spontaneous neuronal activity.
During the first day of differentiation in vitro (Table S7.1 in SI), neurons were treated for 24 h with either control medium, glycomimetic D2 (1 μM), FGF-2 (40 ng/mL) alone, or a combination of FGF-2 and D2 (40 ng/mL and 1 μM, respectively). After treatments, cultures were fixed and immuno-labeled with antibodies against the neuronal marker β-Tubulin III to study cell morphology. […] Quantitative analysis further corroborated these observations (Figure B–C).

hippocampal neurons = assay: Patch clamp recording of spontaneous synaptic activity in hippocampal neurons; format: cell-based, rat; conditions: 24 h treatment, neurons at 8 days in vitro, voltage clamp −58 mV; mean ± SEM
Description: In another set of experiments, we investigated the impact of D2+FGF-2, with respect to that of FGF-2 alone, on the formation of functionally active neuronal networks. To this aim, we used hippocampal neurons developed in vitro for 1 week, from which, through the single-cell patch clamp technique, we recorded in voltage clamp mode spontaneous synaptic activity. […] While neurons treated with FGF-2 alone presented sPSCs of fluctuating amplitude (in average 42 ± 5 pA) at a frequency of 1.23 ± 0.38 Hz, the coapplication of D2 with the growth factor induced a statistically significant enhancement of both these values (for D2+FGF-2, sPSCs frequency: 2.52 ± 0.47 Hz, and sPSCs amplitude: 75 ± 14 pA, p < 0.05 FGF-2 vs D2+FGF-2, Figure E–F).

T1 sequence (P09038 134-288 limits assumed, species assumed): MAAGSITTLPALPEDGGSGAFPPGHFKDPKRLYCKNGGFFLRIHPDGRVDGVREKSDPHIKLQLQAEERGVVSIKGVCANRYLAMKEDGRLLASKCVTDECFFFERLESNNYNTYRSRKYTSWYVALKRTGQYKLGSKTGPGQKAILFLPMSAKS
Chain of FGF-1 (P05230 whole entry, species assumed): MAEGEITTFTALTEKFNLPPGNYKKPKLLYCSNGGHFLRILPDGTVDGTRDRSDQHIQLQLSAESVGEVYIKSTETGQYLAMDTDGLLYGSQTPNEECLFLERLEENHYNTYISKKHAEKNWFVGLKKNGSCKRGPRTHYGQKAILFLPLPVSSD
Chain of AT-III (P01008 33-464): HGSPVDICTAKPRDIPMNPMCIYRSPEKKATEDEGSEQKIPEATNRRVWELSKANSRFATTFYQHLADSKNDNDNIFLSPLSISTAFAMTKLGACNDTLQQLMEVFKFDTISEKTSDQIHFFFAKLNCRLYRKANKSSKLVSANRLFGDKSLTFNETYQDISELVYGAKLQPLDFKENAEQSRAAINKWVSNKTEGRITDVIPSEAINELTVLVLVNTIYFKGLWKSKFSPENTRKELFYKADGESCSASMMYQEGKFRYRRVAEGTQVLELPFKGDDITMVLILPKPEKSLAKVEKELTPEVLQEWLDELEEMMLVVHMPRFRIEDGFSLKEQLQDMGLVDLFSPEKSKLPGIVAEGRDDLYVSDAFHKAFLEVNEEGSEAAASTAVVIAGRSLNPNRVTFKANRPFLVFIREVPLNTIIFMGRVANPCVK

Compound	aPTT mean clotting time [1] [s]	competition with immobilized native HS for FGF-2 binding, signal intensity (FGF-2 [2])	FGF-2 Sample Tm (FGF-2 [3])	FGF-1 Sample Tm (FGF-1)	IC50 (FGF-2 [2])	further results
CC(=O)N[C@H]1[C@@H](OCCN)O[C@H](COS(=O)(=O)O)[C@@H](O)[C@@H]1O [M1, GlcNAc6S]	22	much weaker effect; also recorded: minimal inhibition	50.7 °C and 50.7 ± 0.2 °C	43.3 °C and 43.3 ± 0.4 °C	–	–
NCCCCCOC1OC(COS(=O)(=O)O)C(OC2OC(C(=O)NNS(=O)(=O)O)C(OS(=O)(=O)O)C(O)C2OS(=O)(=O)O)C(O)C1NS(=O)(=O)O (stereo not shown) [D3, GlcANS6S-GlcNS6S]	25.3	dose-dependent reduction in signal intensity	54.2 °C and 54.2 ± 1.2 °C	45.3 °C and 45.3 ± 0.3 °C	84500 nM	–
GlcNS6S-GlcA-GlcNS3S6S-IdoA2S-GlcNS6S-GlcA [H1, reference compound]	–	–	–	–	2610 nM	–
NC[C@H]1O[C@H](O[C@H]2[C@H](OS(=O)(=O)O)[C@@H](OS(=O)(=O)O)[C@@H](O[C@H]3[C@H](OS(=O)(=O)O)[C@@H](OS(=O)(=O)O)[C@@H](O[C@H]4[C@H](OS(=O)(=O)O)[C@@H](OS(=O)(=O)O)[C@@H]5OC[C@H]4O5)O[C@@H]3COS(=O)(=O)O)O[C@@H]2COS(=O)(=O)O)[C@H](OS(=O)(=O)O)[C@@H](OS(=O)(=O)O)[C@@H]1OS(=O)(=O)O [T1, Glc2S3S-Glc2S3S6S-Glc2S3S6S-Glc2S3S]	28.5	dose-dependent reduction in signal intensity	59.3 °C and 59.3 ± 2.2 °C	46.3 °C and 46.3 ± 0.5 °C	900 nM and 910 nM	binding to AT-III (AT-III): bound to AT-III; AT-III-mediated Factor Xa activity (Factor Xa): slight interactions; AT-III-mediated Factor IIa activity (Factor IIa (thrombin)): slight interactions
CO[C@H]1O[C@H](COS(=O)(=O)O)[C@@H](O[C@@H]2O[C@@H](C(=O)O)[C@@H](O[C@H]3O[C@H](COS(=O)(=O)O)[C@@H](O[C@@H]4O[C@H](C(=O)O)[C@@H](O[C@H]5O[C@H](COS(=O)(=O)O)[C@@H](O)[C@H](O)[C@H]5NS(=O)(=O)O)[C@H](O)[C@H]4O)[C@H](OS(=O)(=O)O)[C@H]3NS(=O)(=O)O)[C@H](O)[C@H]2OS(=O)(=O)O)[C@H](O)[C@H]1NS(=O)(=O)O [Fondaparinux, reference compound]	37	–	–	–	–	AT-III-mediated Factor Xa activity (Factor Xa): selectively inhibited
CC(=O)N[C@H]1[C@@H](OCCN)O[C@H](CO)[C@@H](O[C@@H]2O[C@@H](C(=O)O)[C@@H](OS(=O)(=O)O)[C@H](O)[C@H]2OS(=O)(=O)O)[C@@H]1O [D1, IdoA2S4S-GlcNAc]	22.5	much weaker effect; also recorded: minimal inhibition	51.6 °C and 51.6 ± 1.9 °C	44.5 °C and 44.5 ± 0.4 °C	–	–
FGF-2: fibroblast growth factor-2, basic FGF, applied alone at 40 ng/mL	–	–	–	–	–	number of neurites emerging from the cell body ([4]; control 3.6 ± 0.22): 5.4 ± 0.28 neurites per neuron; length of the longest neurite ([4]; control 38 ± 2): 45 ± 4 μm; sPSCs amplitude (hippocampal neurons): 42 ± 5 pA; sPSCs frequency (hippocampal neurons): 1.23 ± 0.38 Hz
